# From patent publication US12435109B2, “Compositions and methods for dissolving protein aggregates” (REJUKON BIOPHARM INC., priority 2020, dated 2025)
# Entries after “also recorded” stand apart in the source; their conditions may differ.
# Experiments:
# [1] = test system: FUS protein aggregates in SH-SY5Y cells; experiment: FUS protein aggregates in heat-shocked SH-SY5Y cell model overexpressing FUS; assay type: cell-based; conditions: heat shock 42° C. 1 hour, 1 μg polypeptide-plasmid
# From the text: Polypeptides RJK001˜RJK004 and control polypeptides RJK005˜RJK007 were transfected into the SH-SY5Y cell model overexpressing FUS-mCherry after heat stimulation. The staining of G3BP1 represents the stress granule.
# Polypeptides RJG001˜RJG003 and control polypeptide RJK005 were transfected into the SH-SY5Y cell model overexpressing FUS-mCherry after heat stimulation. The staining of G3BP1 represents the stress granule.
# (§1) An SH-SY5Y cell model that overexpresses FUS-GFP protein or TDP-43-mCherry protein was generated using the following steps:
# SH-SY5Y cells were cultured in DMEM/F12 medium containing 10% fetal bovine serum in a 37° C., 5% carbon dioxide incubator. […]
# (§2) The SH-SY5Y cell model (initially cultured at 37° C.) transfected with the FUS plasmid according to Example 2 was placed in a 42° C. incubator for 1 hour for heat shock treatment to cause FUS protein aggregation. […] Laser confocal fluorescence microscope was used to observe the accumulation of overexpressed FUS in SH-SY5Y cells.
# as §2
# [2] = test system: FUS-GFP protein aggregates in motor neurons; experiment: FUS-GFP protein aggregates in primary cultured motor neurons, live imaging; assay type: cell-based, rat; conditions: 20 μM polypeptide
# Protocol: Real-time imaging technology using fluorescence microscope was used to observe the cell culture. […] The left 2-3 images are the microscopic images when the polypeptides were just added (0 min); the middle images are the microscopic images at different time points (30 minutes, 60 minutes, 90 minutes) after the polypeptides were added, and the right image is the microscopic image at 120 minutes after adding the polypeptides.
# (§3) An ALS rat motor neuron model that can be used to overexpress FUS-GFP protein and SOD1 (G93A) protein was generated using the following steps.
# After the E13.5 rat is anesthetized, open the abdominal cavity and take out the uterus to a 10 cm dish. Add HBSS, use scissors and tweezers to remove the embryos to a new 10 cm dish. Separate the head and trunk of the embryo and move to anatomical spinal cord under a stereoscope. With the torso facing up, fix the hind limbs with a microscopic forceps. After finding the translucent spine, use another microscopic forceps to lift the skin forward and upward, and then open the connection on the side of the spine. Pick up the spine from the tail. Fix the head of the spine with the back side facing up and pick up the membrane. Turn the abdomen up, peel off the membrane, most of the DRG was removed. Remove the DRG attached to the spinal cord and move to a new 6 cm dish. Use micro tweezers to move the spinal cord to a 5 ml centrifuge tube, use tweezers to crush it to a size of 1 mm, add 1× Trypsin (diluted by HBSS), and place in a 37° C. incubator for 25-30 minutes. Use a 1 ml pipette tip to suck the tissue mass into the preheated 3 ml MN Medium and blow away the tissue mass. Pass the 40 um filer, transfer the cells to a 5 ml centrifuge tube, centrifuge at 400 g, 5 min to remove the supernatant. Resuspend the cells in 3 mlMN medium, take 10 ul and count. […]
# A rat motor neuron model of ALS pathogenic FUS protein aggregates was prepared according to Example 4. […] The dissolution effect of the polypeptides on proteins aggregates in motor neurons was recorded with live images using laser confocal fluorescence microscope. […]
# [3] = test system: TDP-43 protein aggregates in SH-SY5Y cells; experiment: TDP-43 protein aggregates in heat-shocked SH-SY5Y cell model overexpressing TDP-43-mCherry; assay type: cell-based; conditions: SH-SY5Y overexpressing TDP-43-mCherry, heat shock 42° C. 1 hour, 1 μg polypeptide-plasmid
# Protocol: Polypeptides RJK001˜RJK004 and control polypeptides RJK005˜RJK007 were transfected into the SH-SY5Y cell model overexpressing TDP-43-mCherry after heat stimulation. The staining of G3BP1 represents the stress granule.
# as §1
# SH-SY5Y cells were cultured in DMEM/F12 medium containing 10% fetal bovine serum in a 37° C., 5% carbon dioxide incubator. After the cell confluence reaches 80%, the culture medium was removed using a vacuum pump or pipette. The cells were washed once with PBS. Add trypsin-EDTA (0.05%) to the culture dish and incubate it in a 37° C. cell incubator for 1 min. Add twice the volume of culture medium to stop the digestion, and gently blow the cells to suspend the cells into a uniform cell suspension. Add the cell suspension to a 15 mL centrifuge tube and centrifuge at 1200 rpm for 3 minutes. Discard the supernatant and resuspend the cells in fresh complete medium. […]
# The SH-SY5Y cell model (initially cultured at 37° C.) transfected with the TDP-43 plasmid prepared according to Example 2 was placed in a 42° C. incubator for 1 hour for heat shock treatment to cause the TDP43 protein to separate and aggregate. […] Laser confocal fluorescence microscopy was used to observe the accumulation of TDP-43 and cell-endogenous G3BP1 in SH-SY5Y cells.
# [4] = test system: TIA1 protein aggregates in SH-SY5Y cells; experiment: TIA1 protein aggregates in heat-shocked SH-SY5Y cell model; assay type: cell-based; conditions: heat shock 42° C. 1 hour, 1 μg polypeptide-plasmid
# [5] = test system: SOD1(G93A)-GFP protein aggregates in motor neurons; experiment: SOD1(G93A) protein aggregates in primary cultured motor neurons, live imaging; assay type: cell-based, rat; conditions: 20 μM polypeptide
# Protocol: Real-time imaging technology using fluorescence microscope was used to observe the cell culture. The left panel is the polypeptide RJK001; the right panel is the control polypeptide RJK005. […] The right image in each panel is the microscopic image at 24 hours after adding the polypeptides.
# as §3
# After the E13.5 rat is anesthetized, open the abdominal cavity and take out the uterus to a 10 cm dish. Add HBSS, use scissors and tweezers to remove the embryos to a new 10 cm dish. Separate the head and trunk of the embryo and move to anatomical spinal cord under a stereoscope. With the torso facing up, fix the hind limbs with a microscopic forceps. After finding the translucent spine, use another microscopic forceps to lift the skin forward and upward, and then open the connection on the side of the spine. Pick up the spine from the tail. Fix the head of the spine with the back side facing up and pick up the membrane. Turn the abdomen up, peel off the membrane, most of the DRG was removed. […]
# A rat motor neuron model of ALS pathogenic SOD1 (G93A) protein aggregates was prepared according to Example 4. […] The dissolution effect of the polypeptides on proteins aggregates in motor neurons was recorded with live images using laser confocal fluorescence microscope. […]
sequence,measurement,setting,value
"TEPQEESEEEVEEPEERQQTPEVVPDDSGTFYDQTVSNDLE [RJK001, polypeptide capable of dissolving protein aggregates]",dissolution of FUS protein aggregates / number of phase-separated droplets of FUS protein in SH-SY5Y cells versus control,[1],significantly less; also recorded: significant dissolving effect
same,aggregation of ALS pathogenic FUS protein in motor neurons at 90 minutes after adding polypeptide,[2]; 90 minutes,began to dissolve significantly
same,aggregation of ALS pathogenic FUS protein in motor neurons after 120 minutes,[2]; 120 minutes,essentially dissolved
same,dissolving effect on FUS protein aggregates in motor neurons,"[2]; motor neurons, day 10 in vitro, up to 120 minutes",significant dissolving effect; also recorded: enhanced the dissolution
same,dissolution of TDP-43 protein aggregates / number of phase-separated droplets of TDP-43 protein in SH-SY5Y cells versus control,[3],significantly less; also recorded: significant dissolving effect
same,dissolution of TIA1 protein aggregates / number of phase-separated droplets of TIA1 protein in SH-SY5Y cells versus control,[4],significantly less; also recorded: significant dissolving effect
same,aggregation of SOD1 (G93A) protein in motor neurons at 24 hours after adding polypeptide,[5],dissolved significantly
same,dissolving effect on SOD1 (G93A) protein aggregates in motor neurons,"[5]; motor neurons, day 10 in vitro, 24 hours",significant dissolving effect; also recorded: enhanced the dissolution
